Series [1] has as its target P-glycoprotein (human MDR1 expressed in Sf9 cells) (Homo sapiens, UniProt P08183, G185V). Kind of series: P-gp-associated ATPase activity (vanadate-sensitive release of inorganic phosphate from ATP), stimulation, membranes of Sf9 cells expressing human MDR1. From the text: (§1) physiologic and non-physiologic compounds, including prenylcysteines and analogs thereof, can be tested in vitro for their ability to serve as P-gp substrates (and thus modulators of MDR transporter activity), both in terms of stimulating the intrinsic ATPase activity of the transporter and competing for drug binding. Insect cells (eg Sf9 cells) infected with baculovirus containing MDR1 cDNA (available from the American Type Culture Collection, Rockville, Md.) can be used as a source of membranes suitable for use in such in vitro screens. Membranes from drug-induced resistant cells can also be used (eg, MCF7-MDR breast cancer cells). Details of an appropriate protocol for testing compounds for their ability to stimulate P-gp-associated ATPase are given in the Examples. The method described involves incubating MDR transporter-containing membranes with the test compound and measuring the level of vanadate sensitive release of inorganic phosphate from ATP (see Sarkadi et al, J. Biol. Chem. 267:4854 (1992)).
Sf9 cells were grown in Grace's insect culture media supplemented with 10% fetal bovine serum (HyClone), 0.1% Pluronic F-68, 100 unit/ml penicillin and 100 μg/ml streptomycin. Sf9 cells were infected with baculovirus according to established procedures (O'Reilly et al, Baculovirus Expression Vectors--A Laboratory Manual, New York: W.H. Freeman & Co. (1992)). Recombinant baculovirus containing the human MDR1V185 cDNA (Germann et al, Biochemistry 29:2295 (1990)) was provided by Dr. M. Gottesman (MDR1 cDNAs are available from the American Type Culture Collection, Rockville, Md.). Mock-infection was carried out using recombinant baculovirus containing the cDNA encoding a protein prenyltransferase. […] These cells were grown in Iscove's Modified Dulbecco's Media (MDM) supplemented with 10% fetal bovine serum. The MCF7-MDR cells were exposed to 10 μM doxorubicin every 8-10 passages to maintain the drug-resistant phenotype.
Sf9 membranes were prepared from cells harvested 3 days after infection with specified baculovirus as described (Sarkadi et al, J. Biol. Chem. 267:4854 (1992)). MCF7 membranes from both wild-type and drug-resistant cell lines were prepared by nitrogen cavitation procedures (Cornwell et al, J. Biol. Chem. 261:7921 (1986)), flash-frozen in liquid nitrogen, and stored at -80° C. until use.
P-gp-associated ATPase activity was measured by determining vanadate-sensitive release of inorganic phosphate from ATP as described (Sarkadi et al, J. Biol. Chem. 267:4854 (1992)). Sf9 membranes containing 5-10 μg protein were incubated in 100 μl of 50 mM Mes-Tris, pH 6.8, 50 mM KCl, 2 mM DTT, 2 mM EGTA, 1 mM ouabain, 5 mM sodium azide, 5 mM Mg/ATP. P-gp-associated ATPase activity in MCF7-MDR cells was measured using the same condition except that 50 mM Mes-Tris, pH 6.8 was replaced by 50 mM Tris-HCl, pH 7.5. […] Reactions were conducted at 37° C. for 20 min.

For series [2], the target named is P-gp (Homo sapiens, UniProt P08183, G185V). Kind of series: Inhibition of basal and drug-stimulated P-gp ATPase activity. Type of series: biochemical. From the text: FIG. 3. Ability of acetyl farnesyl methylester (AFCME) to block drug stimulated ATPase of MDR.
FIG. 4. Interaction of prenylcysteine methylamides and prenylcysteine-containing dipeptides with P-gp. The compounds were purified by reversephase HPLC chromatography and analyzed for their ability to stimulate the ATPase activity of P-gp in Sf9 membranes and, in the case of AFCMA, to inhibit FCME-stimulated ATPase activity as described for AFCME in Example 4. Left panel--Stimulation of P-gp ATPase activity in Sf9 membranes. Increasing concentration of FCMA (.box-solid.), farnesylated γGlu-Cys (unmethylated F-dipeptide, Δ), and the methylated form of farnesylated γGlu-Cys (methylated F-dipeptide, .tangle-solidup.) were analyzed. Right panel AFCMA inhibition of P-gp ATPase activity in Sf9 membranes. Increasing concentrations of AFCMA were added to membranes from Sf9 cells expressing P-gp either with no added drug (.largecircle.) or along with 20 μM […] as an ATPase stimulator (.circle-solid.).
The ATPase assay can also be used to identify test compounds that inhibit P-gp activity, ie P-gp antagonists, which are also potential agents for reversing P-gp-mediated drug resistance. In this type of assay, the ability of a selected test compound to reduce P-gp-ATPase which has been stimulated by a drug known to elicit this activity (eg verapimil or farnesylcysteine methyl ester (FCME) is examined. Increasing concentrations of the selected test compound and a fixed amount of the stimulatory drug are mixed, added to the P-gp preparation, and ATPase activity determined. A dose-dependent inhibition of ATPase activity by the selected compound indicates an antagonist.
Reactions were conducted at 37° C. for 20 min.

Series [3] concerns the target native P-gp expressed in the drug-resistant human breast cancer cell line MCF7-MDR (Homo sapiens, UniProt P08183). The note with it: mcf7-mdr membranes, 20 min.
Excerpt: as §1, with “(1992)). […]” for “(1992)).”
P-gp-associated ATPase activity was measured by determining vanadate-sensitive release of inorganic phosphate from ATP as described (Sarkadi et al, J. Biol. Chem. 267:4854 (1992)). […] P-gp-associated ATPase activity in MCF7-MDR cells was measured using the same condition except that 50 mM Mes-Tris, pH 6.8 was replaced by 50 mM Tris-HCl, pH 7.5. […]

Setting [4] is: read-out: maximum stimulation of P-gp ATPase.

Like-named read-outs stand apart in the source and are kept apart here.

For `CC(=O)N[C@@H](CSCC=C(C)CCC=C(C)CCC=C(C)C)C(=O)O` [AFC, N-acetyl-S-farnesylcysteine], the “ATPase stimulation (in words)” value in series [1] is reported as “did not stimulate the transporter's ATPase activity”.

As to `CNC(=O)C(CSCC=C(C)CCC=C(C)CCC=C(C)C)NC(C)=O` (stereo not drawn) [AFCMA], the “inhibition of drug-stimulated P-gp ATPase activity (in words)” value in series [2] (Sf9 membranes, FIG. 4 right panel) is “potent in stimulation (FCMA) and inhibition of drug-stimulated (AFCMA) P-gp ATPase activities”.

As for `COC(=O)[C@H](CSCC=C(C)CCC=C(C)CCC=C(C)C)NC(C)=O` [AFCME, N-acetyl-S-farnesylcysteine methyl ester], the “concentration at which the transporter's basal ATPase activity is inhibited” value in series [2] (basal ATPase activity) is > 20 µM. In addition, in series [2] (dose-dependent, FIG. 3), the “blocking of basal and drug (FCME, verapamil)-stimulated ATPase activity (in words)” value is “can block both the basal and drug-stimulated ATPase activities of P-gp in a dose-dependent fashion”. Further, the “inhibition of basal ATPase activity (in words)” value in series [2] (higher concentrations (above 20 μM), preliminary analysis) is listed as “marked inhibition of even the basal ATPase activity”. The “stimulation of ATPase activity at low concentrations (in words)” value in series [2] (low (<20 μM) concentrations, preliminary analysis) is given as “weak stimulation of the ATPase activity”. In addition, in series [1], the “ATPase stimulation (in words)” value is given as “essentially abolished its stimulatory effect”.

For `CC(C)=CCCC(C)=CCCC(C)=CCSC[C@H](NC(=O)CC[C@H](N)C(=O)O)C(=O)O` [F-γGlu- Cys], the “stimulation of P-gp ATPase activity (in words)” value in series [1] is on record as “stimulate P-gp ATPase activity in a methylation-dependent fashion”.

Take `CC(C)=CCCC(C)=CCCC(C)=CCSC[C@H](N)C(=O)O` [FC, S-farnesylcysteine]: the “stimulation of P-gp ATPase activity (in words)” value in series [1] is given as “ineffective in stimulating the ATPase of P-gp”.

In the case of `CNC(=O)C(N)CSCC=C(C)CCC=C(C)CCC=C(C)C` (stereo not drawn) [FCMA], the “stimulation of P-gp ATPase activity (in words)” value in series [1] is on record as “potent in stimulation”.

Consider `COC(=O)[C@@H](N)CSC/C=C(\C)CC/C=C(\C)CCC=C(C)C` [FCME, S-farnesylcysteine methyl ester], for which, in series [1], the “concentration of maximum stimulation of P-gp ATPase” value fell in the range of 10 to 20 µM and the “stimulation of P-gp ATPase activity (in words)” value is given as “stimulated this activity in a fashion very similar to that of verapamil”. For the same compound, the Emax in series [1] (read-out: Maximal stimulation of ATPase activity) is ~450%. Further, the Emax in series [1] (setting [4]) lay in the range of 400 to 500%. Further, the “increase of P-gp-catalyzed ATP hydrolysis” value in series [3] is on record as ~ 2.5 fold.

In the case of `CC(C)=CCCC(C)=CCCC(C)=CCO` [FOH, Farnesol, reference compound], the “ATPase stimulation (in words)” value in series [1] was “ineffective”.

As to `CC(C)=CCC/C(C)=C/CC/C(C)=C/CC/C(C)=C/CSC[C@H](N)C(=O)O` [GGC, S-geranylgeranylcysteine], in series [1], the “stimulation of P-gp ATPase activity (in words)” value was “ineffective in stimulating the ATPase of P-gp”.

For the compound `COC(=O)[C@@H](N)CSC/C=C(\C)CC/C=C(\C)CC/C=C(\C)CCC=C(C)C` [GGCME, S-geranylgeranylcysteine methyl ester], in series [1], the “concentration of maximum stimulation of P-gp ATPase” value is 10 to 20 µM and the “stimulation of P-gp ATPase activity (in words)” value was “stimulated this activity in a fashion very similar to that of verapamil”. Further, the Emax in series [1] (setting [4]) is 400 to 500%. The “increase of P-gp-catalyzed ATP hydrolysis” value in series [3] is on record as ~ 2.5 fold.
